From the supplement of paper PMC10307832

Key:
Experiment in all cases: relative viability (nuclei count vs DMSO), 5 days (fraction); higher = more cells survive
[1] = compound: C1CC(C2=C(C1)C3=C(N2)C=CC(=C3)Cl)C(=O)N [Selisistat] + CC(=O)c1c(C)c2cnc(Nc3ccc(N4CCNCC4)cn3)nc2n(C2CCCC2)c1=O [Palbociclib] (partner 0.5 µM)
Summary of the method: (§1)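 A single step with final 0.05% Triton X-100, 1% formaldehyde and 1 ug/ml Hoechst fixed the cells and stained nuclei 5 days after treatment. Lung cancer cell lines in 1536-well plates had been treated by pin tool the day after seeding with one drug alone or a fixed anchor-drug dose plus five library-drug doses (not always all listed) in √10 steps, and nuclei were counted on 4× images. Relative viability is the ratio of nuclei in treated wells to nuclei in vehicle wells, taken as the median of duplicate plates.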

[2] = compound: c1ccc2c(CCNc3ccc(Nc4ccncc4)cc3)c[nH]c2c1 [Serdemetan] + CC1(C)CCC(c2ccc(Cl)cc2)=C(CN2CCN(c3ccc(C(=O)NS(=O)(=O)c4ccc(N[C@H](CCN5CCOCC5)CSc5ccccc5)c(S(=O)(=O)C(F)(F)F)c4)cc3)CC2)C1 [Navitoclax] (partner 0.5 µM)
Summary of the method: as §1

[3] = compound: c1ccc2c(CCNc3ccc(Nc4ccncc4)cc3)c[nH]c2c1 [Serdemetan] + CS(=O)(=O)N1CCN(Cc2cc3nc(-c4cccc5[nH]ncc45)nc(N4CCOCC4)c3s2)CC1 [Pictilisib] (partner 1 µM)
Summary of the method: as §1

[4] = compound: c1ccc2c(CCNc3ccc(Nc4ccncc4)cc3)c[nH]c2c1 [Serdemetan] + Cc1nc(Nc2ncc(C(=O)Nc3c(C)cccc3Cl)s2)cc(N2CCN(CCO)CC2)n1 [Dasatinib] (partner 0.075 µM)
Summary of the method: as §1

Q: What does the source list for UMC-11?
A: relative viability ([1]; first compound 0.4 µM): 0.348; relative viability ([1]; first compound 1.265 µM): 0.34; relative viability ([1]; first compound 4 µM): 0.299; relative viability ([1]; first compound 12.65 µM): 0.319; relative viability ([1]; first compound 40 µM): 0.349; relative viability ([2]; first compound 0.04 µM): 0.327; relative viability ([2]; first compound 0.1265 µM): 0.387; relative viability ([2]; first compound 0.4 µM): 0.314; relative viability ([2]; first compound 1.265 µM): 0.266; relative viability ([2]; first compound 4 µM): 0.313; relative viability ([3]; first compound 0.04 µM): 0.813; relative viability ([3]; first compound 0.1265 µM): 0.866; relative viability ([3]; first compound 0.4 µM): 0.824; relative viability ([3]; first compound 1.265 µM): 0.47; relative viability ([3]; first compound 4 µM): 0.737; relative viability ([4]; first compound 0.04 µM): 0.45; relative viability ([4]; first compound 0.1265 µM): 0.437; relative viability ([4]; first compound 4 µM): 0.351
